Assays:
[1] = Nonparametric population PK model (two-compartment, allometric, renal function) fitted to plasma teicoplanin concentrations in neonates, infants and children; type: in vivo, human; details: final model
Source text: Pharmacokinetic data from 57 children (39 children aged 1 month to 16 years old and 18 neonates with a postmenstrual age [PMA] between 26 and 44 weeks) were available for model building. Patients were prospectively enrolled from two different hospitals in Liverpool (Alder Hey NHS Children's Foundation Trust and Liverpool Women's Hospital) over a 21-month period (April 2013 and January 2015). These PK data have been reported previously in two separate population models ([1], [2]). […] Such an approach avoids the problem of having multiple pharmacokinetic models for the same drug, each with an arbitrarily chosen cutoff value for age or size.
Neonates with a PMA of ≤44 weeks received a loading dose of 16 mg/kg, followed by 8 mg/kg once daily via a 30-min intravenous (i.v.) infusion. Children >1 month old received three loading dosages of 10 mg/kg every 12 h, followed by 10 mg/kg once daily via an i.v. bolus infusion (2 to 5 min), according to the dosages currently recommended by the SPC ([11]). Plasma samples were collected during the first dosage interval and then at steady state (1, 3, 6, and 24 h postdose) on days 3 to 7 of therapy. Neonates weighing <1,000 g contributed two samples per dosing interval because of constraints on sample volume. The duration of the treatment course was at the discretion of the treating physician. All patients received teicoplanin for proven or suspected methicillin-resistant staphylococcal sepsis (due to either coagulase-negative staphylococci [CoNS] or MRSA) and/or central-line-associated bloodstream infection. Demographic variables included weight, height, age in years, PMA in weeks, postnatal age (PNA) in days, serum albumin concentration (in grams per liter), and serum creatinine concentration. The estimated glomerular filtration rate (eGFR) (Schwartz-Haycock) ([28]) was also available for each patient.
Teicoplanin concentrations were measured using a commercially available fluorescence polarization immunoassay (FPIA; Thermo Fisher Scientific, Germany). The limit of quantification (LOQ) was <3.0 mg/liter. The dynamic range was 3 to 100 mg/liter, and overall precision (intra- and interday variability) was <6%.
A PK model was fitted to the data using Pmetrics, version 1.4.2 for R, statistical package 3.2.2, which utilizes the nonparametric adaptive grid (NPAG) algorithm ([29]). The inverse of the estimated assay variance was used to weight the data. Initially, a standard two-compartment model with time-delimited zero-order i.v. input and first-order elimination from the central compartment was developed. The standard model is described by differential equations 1a and 1b below: (1a) dX(1)/dt=R(1)−(Kcp+Cl/V)⋅X(1)+[Kpc⋅X(2)] (1b) dX(2)/dt=Kcp⋅X(1)−Kpc⋅X(2) where X(1) and X(2) represent the amounts of teicoplanin (in milligrams) in the central (c) and peripheral (p) compartments, respectively; R(1) is the rate of infusion of the drug into the central compartment (in milligrams per hour); clearance (Cl) from the central compartment is measured in liters per hour; volume (V) is measured in liters; and the central and peripheral compartments are connected by the first-order rate constants Kcp and Kpc (measured per hour).
In neonates and children, clearance generally scales with size in a nonlinear manner that is best described using a power function. A scaling exponent of 0.75 is most frequently used (i.e., clearance is proportional to weight^0.75). In addition, physiological maturation may also affect clearance, and this is especially important for neonates and young infants ([30], [31]). In the model-building process, we switched from using clearance to using Ke (measured per hour) as the first-order elimination rate constant, where Ke is calculated as Cl/V and is proportional to weight^−0.25. While it is possible to estimate the scaling exponents directly, we chose to fix these values as previously described by others ([24], [30], [31]). […]

[2] = BestDose multiple-model Bayesian adaptive dose optimization software, individual simulations for an infant and an older child; parameters: species or system human; details: trapezoidal approximation to hourly software predictions
Source text: We incorporated the final population PK model into a teicoplanin multiple-model Bayesian adaptive dosing controller (the software “cartridge”). The controller is based on the concepts and software (BestDose) developed by the University of Southern California Laboratory for Applied Pharmacokinetics and Bioinformatics (LAPKB) (http://www.lapk.org) ([35], [36]). The teicoplanin cartridge included the final structural model equations relating input (dosing information) to output (concentrations of the drug in plasma) and the discrete joint probability distribution of the values of the equation variables (PK parameters) in the population, consisting of a discrete number of support points and their associated probabilities (the Bayesian prior). […]
The dose optimization software was tested by comparing the estimated predicted PK profile plot against the observations, as well as by the linear regression of the observed-versus-predicted concentrations for each individual patient. From the predicted concentrations based on the median individual Bayesian posterior parameter distribution, we calculated the bias, which is equal to the mean weighted predicted error (∑ wpe/N), where wpe is (predicted concentration − actual concentration)/(SD for each prediction/observation), N is the number of observations, and the percentage of bias. […]

## teicoplanin
[1]; n = 57, occasion 1 (<96 h), Volume = V0 · (wt/70), population mean
  V01, weight-standardized volume of the central compartment (V0), mean: 22.636 L
[1]; n = 57, occasion 1 (<96 h), Volume = V0 · (wt/70), population median
  V01, weight-standardized volume of the central compartment (V0), median: 19.52 L
[1]; n = 57, occasion 1 (<96 h), standardized to 70 kg, Ke = Ke0 · (wt/70)^−0.25 · Renal, population median
  Ke01, weight-standardized elimination rate constant (Ke0), median: 0.03 h⁻¹
[1]; n = 57, occasion 2 (samples ≥96 h), standardized to 70 kg, population mean
  Ke02, weight-standardized elimination rate constant (Ke0), mean: 0.036 h⁻¹
[1]; n = 57, occasion 2 (≥96 h), Volume = V0 · (wt/70), population mean
  V02, weight-standardized volume of the central compartment (V0), mean: 22.472 L
[1]; n = 57, occasion 2 (≥96 h), Volume = V0 · (wt/70), population median
  V02, weight-standardized volume of the central compartment (V0), median: 22.7 L
[1]; n = 57, occasion 2 (≥96 h), standardized to 70 kg, population median
  Ke02, weight-standardized elimination rate constant (Ke0), median: 0.025 h⁻¹
[1]; n = 57, patients >3 months old, population mean
  pw, power function (Renal = eGFR^pw), mean: 0.125
[1]; n = 57, patients >3 months old, population median
  pw, power function (Renal = eGFR^pw), median: 0.07
[1]; n = 57, population mean
  Kcp, first-order intercompartmental rate constant, mean: 0.490 h⁻¹
  Kpc, first-order intercompartmental rate constant, mean: 0.214 h⁻¹
[1]; n = 57, population median
  Kcp, first-order intercompartmental rate constant, median: 0.23 h⁻¹
  Kpc, first-order intercompartmental rate constant, median: 0.12 h⁻¹
[1]; n = 57 neonates and children, i.v., occasion 1 (samples <96 h after treatment initiation), standardized to 70 kg, Ke = Ke0 · (wt/70)^−0.25 · Renal, population mean
  Ke01, weight-standardized elimination rate constant (Ke0), mean: 0.038 h⁻¹
[2]; Patient 1 (infant, 5 months, 6.3 kg, eGFR 63.84 ml/min/1.73 m^2)
  Median (range) 24-h AUC along the treatment course: 493.8 (355.8–574) mg · h/liter
[2]; Patient 2 (child, 16.3 kg, eGFR 108.41 ml/min/1.73 m^2)
  Median (range) 24-h AUC along the treatment course: 368.1 (318.9–388.4) mg · h/liter

Source: paper PMC5610524, “Tools for the Individualized Therapy of Teicoplanin for Neonates and Children” (Antimicrobial Agents and Chemotherapy, 2017)
